Measured values reported in ChEMBL document CHEMBL4428125, “8-Substituted 1,3-dimethyltetrahydropyrazino[2,1-f]purinediones: Water-soluble adenosine receptor antagonists and monoamine oxidase B inhibitors” (Bioorg Med Chem, 2016).

Key:
[1] = molecular target: T1, Adenosine receptor A1 (Rattus norvegicus, UniProt P25099); experiment: Displacement of [3H]CCPA from A1 receptor in rat brain cortex membranes by liquid scintillation counting method; assay type: cell membranes
T1 sequence (P25099 whole entry): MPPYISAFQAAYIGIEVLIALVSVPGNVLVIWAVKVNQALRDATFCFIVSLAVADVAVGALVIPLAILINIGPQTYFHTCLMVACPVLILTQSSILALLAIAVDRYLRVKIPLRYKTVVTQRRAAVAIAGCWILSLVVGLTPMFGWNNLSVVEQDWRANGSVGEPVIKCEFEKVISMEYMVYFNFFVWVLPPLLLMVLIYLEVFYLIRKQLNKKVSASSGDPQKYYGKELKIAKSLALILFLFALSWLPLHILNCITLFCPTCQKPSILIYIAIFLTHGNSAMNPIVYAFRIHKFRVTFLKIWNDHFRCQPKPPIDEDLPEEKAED

[2] = molecular target: T2, Adenosine receptor A1 (Rattus norvegicus) (UniProt P25099); experiment: Displacement of [3H]CCPA from A1 receptor in rat brain cortex membranes at 1.5 uM by liquid scintillation counting method; assay type: cell membranes
T2 sequence (whole entry): T1 sequence (P25099 whole entry)

[3] = molecular target: Adenosine receptor A2a (Rattus norvegicus, UniProt P30543); experiment: Displacement of [3H]MSX from A2A receptor in rat brain striatum membranes measured after 30 mins by liquid scintillation counting method; assay type: cell membranes
Sequence of Adenosine receptor A2a (P30543 whole entry): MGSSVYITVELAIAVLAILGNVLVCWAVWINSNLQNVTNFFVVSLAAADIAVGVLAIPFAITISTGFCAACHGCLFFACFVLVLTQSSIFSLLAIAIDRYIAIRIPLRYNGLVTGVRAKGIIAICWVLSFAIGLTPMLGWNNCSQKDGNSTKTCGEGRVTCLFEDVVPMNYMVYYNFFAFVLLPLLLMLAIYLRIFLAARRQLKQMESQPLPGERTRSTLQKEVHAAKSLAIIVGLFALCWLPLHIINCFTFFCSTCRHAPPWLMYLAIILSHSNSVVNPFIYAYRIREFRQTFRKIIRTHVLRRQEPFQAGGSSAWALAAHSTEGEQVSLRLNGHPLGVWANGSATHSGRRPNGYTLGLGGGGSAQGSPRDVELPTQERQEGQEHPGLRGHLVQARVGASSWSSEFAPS

[4] = molecular target: T3, Amine oxidase [flavin-containing] A (Homo sapiens, UniProt P21397); experiment: Inhibition of recombinant human MAO-A expressed in baculovirus infected BTI insect cells preincubated for 30 mins followed by addition of p-tyramine as substrate measured over 45 mins by Amplex Red MAO assay
T3 sequence (P21397 whole entry): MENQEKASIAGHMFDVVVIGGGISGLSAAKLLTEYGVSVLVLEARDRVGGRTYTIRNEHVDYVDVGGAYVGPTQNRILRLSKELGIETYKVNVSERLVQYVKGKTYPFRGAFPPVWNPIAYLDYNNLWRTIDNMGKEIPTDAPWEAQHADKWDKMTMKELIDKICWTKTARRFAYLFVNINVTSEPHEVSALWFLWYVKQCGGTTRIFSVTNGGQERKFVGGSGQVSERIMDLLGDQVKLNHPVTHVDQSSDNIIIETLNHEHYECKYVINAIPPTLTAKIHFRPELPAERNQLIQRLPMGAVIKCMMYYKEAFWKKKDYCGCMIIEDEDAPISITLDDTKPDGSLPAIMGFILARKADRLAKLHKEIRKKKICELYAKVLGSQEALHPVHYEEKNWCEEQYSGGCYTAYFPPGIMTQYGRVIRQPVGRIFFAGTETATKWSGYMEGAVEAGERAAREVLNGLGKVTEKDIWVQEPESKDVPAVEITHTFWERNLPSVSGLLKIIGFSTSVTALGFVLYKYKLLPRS

[5] = molecular target: T3, Amine oxidase [flavin-containing] A; experiment: Inhibition of recombinant human MAO-A expressed in baculovirus infected BTI insect cells at 10 uM preincubated for 30 mins followed by addition of p-tyramine as substrate measured over 45 mins by Amplex Red MAO assay relative to control; conditions: 0.75 h
[6] = molecular target: T4, Amine oxidase [flavin-containing] B (Homo sapiens, UniProt P27338); experiment: Inhibition of recombinant human MAO-B expressed in baculovirus infected BTI insect cells at 10 uM preincubated for 30 mins followed by addition of p-tyramine as substrate measured over 45 mins by Amplex Red MAO assay relative to control; conditions: 0.75 h
T4 sequence (P27338 whole entry): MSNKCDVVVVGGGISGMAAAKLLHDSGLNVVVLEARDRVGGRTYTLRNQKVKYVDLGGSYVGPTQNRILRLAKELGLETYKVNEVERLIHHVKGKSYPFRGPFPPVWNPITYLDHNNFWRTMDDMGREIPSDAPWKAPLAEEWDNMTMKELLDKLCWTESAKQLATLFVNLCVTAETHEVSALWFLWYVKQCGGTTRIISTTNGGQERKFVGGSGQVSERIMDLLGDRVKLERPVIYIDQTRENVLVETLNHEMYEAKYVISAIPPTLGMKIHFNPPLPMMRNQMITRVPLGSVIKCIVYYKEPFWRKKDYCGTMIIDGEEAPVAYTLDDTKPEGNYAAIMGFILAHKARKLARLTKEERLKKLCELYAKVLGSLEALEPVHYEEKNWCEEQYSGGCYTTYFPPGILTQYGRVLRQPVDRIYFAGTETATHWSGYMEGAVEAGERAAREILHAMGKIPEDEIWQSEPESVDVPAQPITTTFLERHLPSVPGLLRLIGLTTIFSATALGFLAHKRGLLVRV

[7] = molecular target: T5, Adenosine receptor A2b (Homo sapiens, UniProt P29275); experiment: Displacement of [3H]PSB-603 from human A2B receptor expressed in CHO cell membrane; assay type: cell membranes
T5 sequence (P29275 whole entry): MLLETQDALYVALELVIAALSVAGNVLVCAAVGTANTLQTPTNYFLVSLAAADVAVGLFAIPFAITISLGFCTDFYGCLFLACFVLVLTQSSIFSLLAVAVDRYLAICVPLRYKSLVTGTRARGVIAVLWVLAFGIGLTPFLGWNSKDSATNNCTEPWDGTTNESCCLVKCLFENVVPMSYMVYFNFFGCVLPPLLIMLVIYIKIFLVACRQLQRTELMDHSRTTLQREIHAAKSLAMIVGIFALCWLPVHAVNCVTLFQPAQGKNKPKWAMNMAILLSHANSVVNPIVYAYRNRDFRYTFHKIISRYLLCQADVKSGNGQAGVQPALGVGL

[8] = molecular target: T6, Adenosine receptor A2b (Homo sapiens) (UniProt P29275); experiment: Displacement of [3H]PSB-603 from human A2B receptor expressed in CHO cell membrane at 1 uM relative to control; assay type: cell membranes
T6 sequence (whole entry): T5 sequence (P29275 whole entry)

[9] = molecular target: T7, Adenosine receptor A3 (Homo sapiens, UniProt P0DMS8); experiment: Displacement of [3H]PSB-11 from human A3 receptor expressed in CHO cell membrane by liquid scintillation counting method relative to control; assay type: cell membranes
T7 sequence (P0DMS8 whole entry): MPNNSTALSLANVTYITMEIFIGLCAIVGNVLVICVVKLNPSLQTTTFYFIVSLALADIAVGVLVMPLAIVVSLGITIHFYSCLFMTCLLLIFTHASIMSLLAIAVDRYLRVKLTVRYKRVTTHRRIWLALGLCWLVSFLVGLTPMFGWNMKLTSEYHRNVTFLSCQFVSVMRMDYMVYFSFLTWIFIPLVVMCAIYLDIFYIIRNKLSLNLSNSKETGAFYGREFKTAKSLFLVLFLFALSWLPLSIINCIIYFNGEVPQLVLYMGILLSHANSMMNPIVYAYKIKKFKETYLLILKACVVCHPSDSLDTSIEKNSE

[10] = molecular target: T8, Adenosine receptor A3 (Homo sapiens) (UniProt P0DMS8); experiment: Displacement of [3H]PSB-11 from human A3 receptor expressed in CHO cell membrane at 10 uM by liquid scintillation counting method relative to control relative to control; assay type: cell membranes
T8 sequence (whole entry): T7 sequence (P0DMS8 whole entry)

[11] = molecular target: Adenosine receptor A2a (Rattus norvegicus) (UniProt P30543); experiment: Displacement of [3H]MSX from A2A receptor in rat brain striatum membranes at 1 uM measured after 30 mins by liquid scintillation counting method relative to control; assay type: cell membranes
Sequence of Adenosine receptor A2a (Rattus norvegicus) (P30543 whole entry): as the sequence (P30543 whole entry) above

[12] = molecular target: T4, Amine oxidase [flavin-containing] B; experiment: Inhibition of recombinant human MAO-B expressed in baculovirus infected BTI insect cells preincubated for 30 mins followed by addition of p-tyramine as substrate measured over 45 mins by Amplex Red MAO assay

Compound: Cn1c(=O)c2c(nc3n2CCN(CCc2cccc(Cl)c2)C3)n(C)c1=O
- Ki [1]: > 1.5 µM
- Activity [2]: 14%
- Ki [3]: 1.31 µM
- IC50 [4]: > 10 µM
- inhibition at 10 µM [5]: 13%
- inhibition at 10 µM [6]: 61%
- Ki [7]: > 1 µM
- Activity [8]: 21%
- Ki [9]: > 10 µM
- Activity [10]: 10%

Compound: Cn1c(=O)c2c(nc3n2CCN(c2ccccc2)C3)n(C)c1=O
- Ki [1]: > 1.5 µM
- Activity [2]: 12%
- Ki [3]: 3.83 µM
- IC50 [4]: > 10 µM
- inhibition at 10 µM [5]: -1%
- inhibition at 10 µM [6]: 61%
- Ki [7]: > 1 µM
- Activity [8]: 8%
- Ki [9]: > 10 µM
- Activity [10]: 32%

Compound: COc1cccc(CCN2CCn3c(nc4c3c(=O)n(C)c(=O)n4C)C2)c1OC
- Ki [1]: > 1.5 µM
- Activity [2]: 5%
- Ki [3]: > 1 µM
- Activity [11]: 30%
- IC50 [12]: > 10 µM
- inhibition at 10 µM [6]: 1%
- Ki [7]: > 1 µM
- Activity [8]: 8%
- Ki [9]: > 10 µM
- Activity [10]: 43%

Compound: Cn1c(=O)c2c(nc3n2CCN(CCc2ccc(Cl)c(Cl)c2)C3)n(C)c1=O
- Ki [1]: > 1.5 µM
- Activity [2]: 35%
- Ki [3]: 2.85 µM
- IC50 [4]: > 10 µM
- inhibition at 10 µM [5]: 14%
- IC50 [12]: 0.802 µM
- Ki [7]: > 1 µM
- Activity [8]: 11%
- Ki [9]: 15 µM

Compound: COc1cccc(N2CCn3c(nc4c3c(=O)n(C)c(=O)n4C)C2)c1
- Ki [1]: > 1.5 µM
- Activity [2]: 16%
- Ki [3]: 1.01 µM
- IC50 [4]: > 10 µM
- inhibition at 10 µM [5]: 3%
- IC50 [12]: 1.16 µM
- Ki [7]: > 1 µM
- Activity [8]: 21%
- Ki [9]: > 10 µM
- Activity [10]: 32%

Compound: Cn1c(=O)c2c(nc3n2CCN(CC#Cc2ccc(Cl)c(Cl)c2)C3)n(C)c1=O
- Ki [1]: > 1.5 µM
- Activity [2]: 29%
- Ki [3]: > 1 µM
- Activity [11]: 31%
- IC50 [12]: > 10 µM
- inhibition at 10 µM [6]: 31%
- Ki [7]: > 1 µM
- Activity [8]: 15%
- Ki [9]: > 10 µM
- Activity [10]: 35%

Compound: Cn1c(=O)c2c(nc3n2CCN(CCc2ccccc2Cl)C3)n(C)c1=O
- Ki [1]: > 1.5 µM
- Activity [2]: 32%
- Ki [3]: 2.73 µM
- IC50 [4]: > 10 µM
- inhibition at 10 µM [5]: 11%
- IC50 [12]: 0.723 µM
- Ki [7]: > 1 µM
- Activity [8]: 13%
- Ki [9]: > 10 µM
- Activity [10]: 43%

Compound: CC(CN1CCn2c(nc3c2c(=O)n(C)c(=O)n3C)C1)c1ccccc1 (stereo not given)
- Ki [1]: > 1.5 µM
- Activity [2]: 27%
- Ki [3]: 4.52 µM
- IC50 [4]: > 10 µM
- inhibition at 10 µM [5]: 23%
- IC50 [12]: > 10 µM
- inhibition at 10 µM [6]: 11%
- Ki [7]: > 1 µM
- Activity [8]: 11%
- Ki [9]: > 10 µM
- Activity [10]: 31%
